# Test results reported in patent US20020064790A1, “Design of drugs involving receptor-ligand-DNA interactions” (priority 1993, published 2002).
# “Also recorded” adds a separate entry of the source. Structures can show the parent of a compound that is named as a salt. Where two headings read alike, the source gives them in different places.
# What was measured:
# [1] = test system: MCF-7 (E-3) human breast cancer cells; assay: Inhibition of estrogen stimulated growth of MCF-7 (E-3) cells, 9 day model; format: cell-based; details: for IC50: MCF-7 (E-3), estrogen stimulated growth, 9 day model; for inhibition of estrogen stimulated cell growth: MCF-7 (E-3) cells
# [2] = test system: Nb2 lymphoma cells; assay: DNA synthesis measured by thymidine incorporation; format: cell-based, rat
# Source text: (§1) The mode of action of these piperidinediones is still not proven. […] At the same time, direct binding of such anti-estrogens to DNA appears to be weak. Taken as a whole, these findings support the possibility of a weak interaction of the piperidinediones with both DNA and the estrogen receptor, involving a receptor mediated insertion of the ligand into DNA.
# [3] = test system: DNA; assay: Binding of piperidinedione to DNA
# Source text: as §1
# [4] = target: T1, estrogen receptor (Homo sapiens, UniProt P03372); assay: Estrogen receptor binding
# T1 sequence (P03372 1-595): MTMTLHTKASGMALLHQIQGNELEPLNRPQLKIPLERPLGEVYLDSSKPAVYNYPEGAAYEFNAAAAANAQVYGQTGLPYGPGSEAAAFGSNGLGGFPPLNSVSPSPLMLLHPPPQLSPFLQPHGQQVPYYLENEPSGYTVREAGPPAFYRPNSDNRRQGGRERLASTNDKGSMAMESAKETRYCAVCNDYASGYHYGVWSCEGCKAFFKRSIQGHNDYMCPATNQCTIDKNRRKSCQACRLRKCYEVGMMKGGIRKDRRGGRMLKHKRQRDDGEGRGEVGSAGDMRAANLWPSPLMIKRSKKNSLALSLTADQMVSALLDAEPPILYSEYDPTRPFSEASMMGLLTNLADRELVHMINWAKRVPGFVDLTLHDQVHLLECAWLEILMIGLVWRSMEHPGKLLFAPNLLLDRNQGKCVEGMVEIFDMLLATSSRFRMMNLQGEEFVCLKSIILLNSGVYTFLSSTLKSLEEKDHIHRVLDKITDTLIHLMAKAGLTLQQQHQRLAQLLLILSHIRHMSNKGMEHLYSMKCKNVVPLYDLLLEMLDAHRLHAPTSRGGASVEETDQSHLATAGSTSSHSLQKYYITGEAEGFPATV
# [5] = test system: androgenic activity; details: published findings by Hilgar and Hummel; cited from earlier work
# [6] = test system: uterotropic (estrogenic) activity; details: relative to estradiol, Peters et al.; cited from earlier work
# [7] = target: T1, estrogen receptor; details: cited from earlier work
# [8] = test system: uterotropic (estrogenic) activity; assay: Uterotropic (estrogenic) activity in vivo
# [9] = test system: various animal and human tumor cells; assay: Growth inhibition in various animal and human tumor cells; format: cell-based
# Description: (§2) These synthetic derivatives were assessed for biological potency by measuring their growth inhibitory effects on various cell lines using concentrations of […] based on the reported IC50 of 3-phenylacetylamino-2,6 piperidinedione in Nb2 cells.
# 3-Phenylacetylamino-2,6-piperidinedione (A10) is a modified amino-acid derivative, which was originally isolated from freeze-dried human urine. […] The focus of the following study was to develop more- potent analogs. […] It was observed that placing a hydroxyl group at the para position of the phenyl group of A10 would enable a second hydrogen bond to form thereby substantially enhancing fit as reported by Hendry et al., J. Steroid Biochem. Molec. Biol. 48:495-505 (1994), the teachings of which are hereby incorporated by reference in their entirety.
# [10] = test system: MCF-7 human breast cancer cells; assay: MCF-7 cell growth (cell number) with SGI compounds; format: cell-based; details: dose 10^−8 M; control 252,197 cells
# [11] = test system: rat Nb2 lymphoma cells; assay: Inhibition of prolactin stimulated growth of Nb2 lymphoma cells; format: cell-based
# [12] = test system: YAK lymphoma cells; assay: Growth inhibition in YAK lymphoma cells; format: cell-based; details: rank among derivatives
# Description: as §2
# [13] = test system: human leukemia (K652) cells; assay: Growth inhibition in human leukemia K562 cells; format: cell-based
molecule,measurement,setting,value
"O=C1CCC(NC(=O)Cc2ccccc2)C(=O)N1 (stereo not drawn) [3-phenylacetylamino-2,6-piperidinedione]",IC50,"[1]; Homo sapiens, MCF7, 216 h",3000 µM
same,inhibition of estrogen stimulated cell growth,[1],inhibited
same,DNA synthesis measured by thymidine incorporation,[2],significantly inhibited
same,covalent adducts with DNA,[3],No covalent adducts
same,binding to DNA,[3]; in comparison to classical intercalating drugs,weak and reversible
same,binding for the estrogen receptor,[4],"neither 3-phenylacetylamino-2,6-piperidinedione nor phydroxy-3-phenylacetylamino-2,6-piperidinedione exhibited appreciable binding"
C[C@]12CCC(=O)C[C@@H]1CC[C@@H]1[C@@H]2CC[C@]2(C)[C@@H](O)CC[C@@H]12 [5α-dihydrotestosterone],androgenic activity,[5],highly active androgen
C[C@]12CCC(=O)C[C@@H]1CC[C@@H]1[C@@H]2CC[C@]2(C)[C@@H](O)CC[C@@H]12 [5β-dihydrotestosterone],androgenic activity,[5],essentially inactive
"C[C@@H]1Cc2cc(O)ccc2[C@@H]2[C@@H]1[C@@H]1CC[C@H](O)[C@@]1(C)C[C@@H]2O[N+](=O)[O-] [7α-methylestradiol-11β-nitrate ester, 3,11β, 17β-trihydroxy-7α-methylestra-1,3, 5 (10)-triene 11-nitrate ester]",uterotropic activity,[6],considerably greater than that of estradiol
same,binding to the estrogen receptor relative to estradiol,[7],less than 6 % of the binding of estradiol
C[C@]12CC[C@H]3c4ccc(O)cc4CC[C@H]3[C@@H]1CC[C@@H]2O [9β-estradiol],estrogenic (uterotropic) activity in vivo,[8],inactive; also recorded: little uterotropic activity
CC(=O)O[C@H]1C[C@]2(C)[C@@H](O)CC[C@H]2[C@@H]2CCc3cc(O)ccc3[C@H]21 [11β-acetoxyestradiol],estrogenic (uterotropic) activity in vivo,[8],more active than estradiol
O=C1CCC(NC(=O)Cc2ccc(F)cc2)C(=O)N1 (stereo not drawn) [p-fluoro derivative],potency in tumor cell growth inhibition relative to A10,[9],lack of increased potency
CC/C(=C(\c1ccccc1)c1ccc(OCCN(C)C)cc1)c1ccccc1 [tamoxifen citrate],number of MCF-7 cells,[10],"187,759 cells"
"p-hydroxy-3-phenylacetylamino-2,6-piperidinedione",inhibition of estrogen stimulated cell growth,[1],inhibited
same,IC50,[1],7 µM
same,growth inhibition over concentration range,"[11]; Nb2 lymphoma cells, 10^−4 M to 10^−3 M","more active in Nb2 lymphoma cells than 3-phenylacetylamino-2,6 piperidinedione"
same,inhibition of prolactin stimulated growth,[11]; rat Nb2 lymphoma cells,greatest activity
same,potency in tumor cell growth inhibition relative to A10,[9],most potent compound
same,potency in tumor cell growth inhibition relative to A10,[9]; listed as p-OH-A10,as much as an order of magnitude more active than A10
same,growth inhibitory effect,[12],most active derivative
same,binding for the estrogen receptor,[4],"neither 3-phenylacetylamino-2,6-piperidinedione nor phydroxy-3-phenylacetylamino-2,6-piperidinedione exhibited appreciable binding"
same,dose response comparison of growth inhibition,[13]; 10^−5 to 10^−2 M,more active than the unsubstituted compound
same,growth inhibitory effect,[13]; rank among analogs,most active analog
